The text below walks through data of ChEMBL document CHEMBL1126053, “4-Amido-2-carboxytetrahydroquinolines. Structure-activity relationships for antagonism at the glycine site of the NMDA receptor” (J Med Chem, 1992).

The structures appear in SMILES notation.

The first assay has as its target T1, Glutamate receptor ionotropic, NMDA 1 (Rattus norvegicus, UniProt P35439). The experiment in a line: Inhibition of [3H]- glycine binding to NMDA receptor from rat cortical membranes. Format: cell membranes, Membrane.
For `N[C@H](Cc1ccccc1)C(=O)N[C@H]1C[C@H](C(=O)O)Nc2cc(Cl)cc(Cl)c21`, the IC50 (usually the concentration needed to halve the response being measured) was 7 µM.
On to `N[C@@H](Cc1ccccc1)C(=O)N[C@H]1C[C@H](C(=O)O)Nc2cc(Cl)cc(Cl)c21`, for which the IC50 was determined as 1.05 µM.
On the same count and under the same terms, as for `N[C@@H](Cc1ccccc1)C(=O)N[C@@H]1C[C@@H](C(=O)O)Nc2cc(Cl)cc(Cl)c21`, the figure is over 100 µM; as for `O=C(Nc1ccccc1)N[C@H]1C[C@H](C(=O)O)Nc2cc(Cl)cc(Cl)c21`, 0.0074 µM.
On the same count and under the same terms, as for `O=C(Cc1ccc(Cl)cc1)N[C@H]1C[C@H](C(=O)O)Nc2cc(Cl)cc(Cl)c21`, the figure is 0.052 µM.
Same read-out and setting: as for `O=C(Cc1ccccc1)N[C@H]1C[C@H](C(=O)O)Nc2cc(I)cc(Cl)c21`, the figure is 0.042 µM; as for `O=C(N[C@H]1C[C@H](C(=O)O)Nc2cc(Cl)cc(Cl)c21)C(c1ccccc1)c1ccccc1`, 0.061 µM; as for `O=C(N[C@@H]1C[C@H](C(=O)O)Nc2cc(Cl)cc(Cl)c21)c1ccccc1`, 8.3 µM.
Regarding `COc1ccc(CC(=O)N[C@H]2C[C@H](C(=O)O)Nc3cc(Cl)cc(Cl)c32)cc1`, the IC50 is 0.039 µM.
On the same count and under the same terms, as for `O=C(N[C@H]1C[C@H](C(=O)O)Nc2cc(Cl)cc(Cl)c21)C1CCCCC1`, the figure is 0.17 µM; as for `O=C(N[C@H]1C[C@H](C(=O)O)Nc2cc(Cl)cc(Cl)c21)C1c2ccccc2-c2ccccc21`, 0.025 µM; as for `Cc1ccccc1NC(=O)N[C@H]1C[C@H](C(=O)O)Nc2cc(Cl)cc(Cl)c21`, 0.0073 µM.
The same measure, in the same setting: as for `O=C(NCc1ccccc1)N[C@H]1C[C@H](C(=O)O)Nc2cc(Cl)cc(Cl)c21`, the figure is 0.03 µM; as for `N[C@@H]1C[C@H](C(=O)O)Nc2cc(Cl)cc(Cl)c21`, 14.1 µM; as for `O=C(Cc1ccccc1)N[C@H]1C[C@H](C(=O)O)Nc2cc(Cl)cc(I)c21`, 0.01 µM.
Regarding `O=C(O)[C@H]1C[C@H](NC(=S)Nc2ccccc2)c2c(Cl)cc(Cl)cc2N1`, the IC50 was determined as 0.09 µM.
On the same count and under the same terms, as for `Nc1ccc(CC(=O)N[C@H]2C[C@H](C(=O)O)Nc3cc(Cl)cc(Cl)c32)cc1`, the figure is 0.018 µM; as for `O=C(Cc1ccc(O)cc1)N[C@H]1C[C@H](C(=O)O)Nc2cc(Cl)cc(Cl)c21`, 0.03 µM.
The same measure, in the same setting: as for `O=C(N[C@H]1C[C@H](C(=O)O)Nc2cc(Cl)cc(Cl)c21)c1ccccc1`, the figure is 0.1 µM; as for `CCCC(=O)N[C@H]1C[C@H](C(=O)O)Nc2cc(Cl)cc(Cl)c21`, 0.37 µM; as for `O=C(O)[C@H]1C[C@H](N2Cc3ccccc3C2=O)c2c(Cl)cc(Cl)cc2N1`, 0.027 µM.
Still for that read-out and setting: as for `O=C(O)[C@H]1C[C@H](NCc2ccccc2)c2c(Cl)cc(Cl)cc2N1`, the figure is 10.7 µM; as for `O=C(O)[C@H]1C[C@H](N2CCCC2=O)c2c(Cl)cc(Cl)cc2N1`, 0.046 µM; as for `O=C(Cc1cccs1)N[C@H]1C[C@H](C(=O)O)Nc2cc(Cl)cc(Cl)c21`, 0.032 µM.
`CC(C)(C)OC(=O)N[C@@H]1C[C@H](C(=O)O)Nc2cc(Cl)cc(Cl)c21` returned an IC50 of 11.4 µM.
Turning to `N[C@H](Cc1ccccc1)C(=O)N[C@@H]1C[C@@H](C(=O)O)Nc2cc(Cl)cc(Cl)c21`, the IC50 was over 1000 µM.
Same read-out and setting: as for `O=C(N[C@H]1C[C@H](C(=O)O)Nc2cc(Cl)cc(Cl)c21)c1ccco1`, the figure is 0.15 µM; as for `O=C(O)[C@H]1C[C@H](NC(=O)N2CCc3ccccc32)c2c(Cl)cc(Cl)cc2N1`, 0.22 µM; as for `Cc1cc(C)c2c(c1)N[C@@H](C(=O)O)C[C@@H]2NC(=O)Cc1ccccc1`, 0.067 µM.
`O=C(CCc1ccccc1)N[C@H]1C[C@H](C(=O)O)Nc2cc(Cl)cc(Cl)c21`: the IC50 is 0.076 µM.
Same read-out and setting: as for `O=C(CCCc1ccccc1)N[C@H]1C[C@H](C(=O)O)Nc2cc(Cl)cc(Cl)c21`, the figure is 0.17 µM; as for `O=C(O)[C@H]1C[C@H](NS(=O)(=O)c2ccccc2)c2c(Cl)cc(Cl)cc2N1`, 5.2 µM.
Still for that read-out and setting: as for `O=C(O)[C@H]1C[C@H](N2C(=O)c3ccccc3C2=O)c2c(Cl)cc(Cl)cc2N1`, the figure is 1.9 µM.
The same measure, in the same setting: as for `O=C(CC1CCCCC1)N[C@H]1C[C@H](C(=O)O)Nc2cc(Cl)cc(Cl)c21`, the figure is 0.11 µM.
Regarding `O=C(O)[C@H]1C[C@H](N2CCN(c3ccccc3)C2=O)c2c(Cl)cc(Cl)cc2N1`, the IC50 stood at 0.006 µM.
On the same count and under the same terms, as for `O=C(O)[C@H]1C[C@H](N2Cc3ccccc3CC2=O)c2c(Cl)cc(Cl)cc2N1`, the figure is 0.072 µM; as for `O=C(Cc1ccsc1)N[C@H]1C[C@H](C(=O)O)Nc2cc(Cl)cc(Cl)c21`, 0.03 µM; as for `CC(C)(C)OC(=O)N[C@H]1C[C@H](C(=O)O)Nc2cc(Cl)cc(Cl)c21`, 0.94 µM.
Still for that read-out and setting: as for `O=C(N[C@H]1C[C@H](C(=O)O)Nc2cc(Cl)cc(Cl)c21)c1ccncc1`, the figure is 0.63 µM; as for `CC(=O)N[C@H]1C[C@H](C(=O)O)Nc2cc(Cl)cc(Cl)c21`, 0.9 µM.
On the same count and under the same terms, as for `O=C(O)[C@H]1C[C@H](N2Cc3ccccc3NC2=O)c2c(Cl)cc(Cl)cc2N1`, the figure is 0.51 µM; as for `CN(C(=O)N[C@H]1C[C@H](C(=O)O)Nc2cc(Cl)cc(Cl)c21)c1ccccc1`, 0.045 µM; as for `N#CN/C(=N\[C@H]1C[C@H](C(=O)O)Nc2cc(Cl)cc(Cl)c21)Nc1ccccc1`, 0.58 µM.
The molecule `O=C(O)[C@H]1CCc2c(Cl)cc(Cl)cc2N1` yielded an IC50 of 6.4 µM.
The same measure, in the same setting: as for `Cc1ccc(NC(=O)N[C@H]2C[C@H](C(=O)O)Nc3cc(Cl)cc(Cl)c32)cc1`, the figure is 0.005 µM; as for `Cc1cccc(NC(=O)N[C@H]2C[C@H](C(=O)O)Nc3cc(Cl)cc(Cl)c32)c1`, 0.018 µM; as for `O=C(N[C@H]1C[C@H](C(=O)O)Nc2cc(Cl)cc(Cl)c21)OCc1ccccc1`, 0.079 µM.
The same measure, in the same setting: as for `O=C(NC1CCCCC1)N[C@H]1C[C@H](C(=O)O)Nc2cc(Cl)cc(Cl)c21`, the figure is 0.028 µM.
Same read-out and setting: as for `Cc1ccc(CC(=O)N[C@H]2C[C@H](C(=O)O)Nc3cc(Cl)cc(Cl)c32)cc1`, the figure is 0.034 µM; as for `O=C(NCc1ccccc1)[C@H]1C[C@H](C(=O)O)Nc2cc(Cl)cc(Cl)c21`, 1.7 µM; as for `O=C(CN[C@H]1C[C@H](C(=O)O)Nc2cc(Cl)cc(Cl)c21)Nc1ccccc1`, 0.42 µM.
In turn, `O=C(C[C@H]1C[C@H](C(=O)O)Nc2cc(Cl)cc(Cl)c21)Nc1ccccc1` came in with an IC50 of 0.03 µM.
The same measure, in the same setting: as for `O=C(O)[C@H]1C[C@H](NC(=O)N(c2ccccc2)c2ccccc2)c2c(Cl)cc(Cl)cc2N1`, the figure is 0.019 µM; as for `O=C(Nc1ccccc1)N[C@H]1C[C@H](C(=O)O)Nc2cc(Cl)cc(I)c21`, 0.006 µM; as for `N[C@H]1C[C@H](C(=O)O)Nc2cc(Cl)cc(Cl)c21`, 11.3 µM.
The same measure, in the same setting: as for `O=C(Cc1ccccc1)N[C@H]1C[C@H](C(=O)O)Nc2cc(Cl)cc(Cl)c21` (stereo in doubt; 14), the figure is 0.014 µM; as for `O=C(Cc1ccccc1)N[C@H]1C[C@H](C(=O)O)Nc2cc(Cl)cc(Cl)c21` (stereo in doubt; 15), 0.011 µM; as for `O=C(Cc1ccccc1)N[C@H]1C[C@H](C(=O)O)Nc2cc(Cl)cc(Cl)c21` (stereo in doubt; 16), 5.9 µM.

The next assay has as its target T1, Glutamate receptor ionotropic, NMDA 1. In words: Inhibition of [3H]- glycine binding to N-methyl-D-aspartate glutamate receptor from rat cortical membranes. In kind it is cell membranes, Membrane.
As to `O=C(Nc1cccc2ccccc12)N[C@H]1C[C@H](C(=O)O)Nc2cc(Cl)cc(Cl)c21`, the IC50 worked out at 0.011 µM.
